According to BindingDB's records for patent US20250162989 (Vincere Biosciences, 2025):

Target: T1, Ubiquitin carboxyl-terminal hydrolase 30 (Homo sapiens, UniProt Q70CQ3)
T1 sequence (Q70CQ3 whole entry): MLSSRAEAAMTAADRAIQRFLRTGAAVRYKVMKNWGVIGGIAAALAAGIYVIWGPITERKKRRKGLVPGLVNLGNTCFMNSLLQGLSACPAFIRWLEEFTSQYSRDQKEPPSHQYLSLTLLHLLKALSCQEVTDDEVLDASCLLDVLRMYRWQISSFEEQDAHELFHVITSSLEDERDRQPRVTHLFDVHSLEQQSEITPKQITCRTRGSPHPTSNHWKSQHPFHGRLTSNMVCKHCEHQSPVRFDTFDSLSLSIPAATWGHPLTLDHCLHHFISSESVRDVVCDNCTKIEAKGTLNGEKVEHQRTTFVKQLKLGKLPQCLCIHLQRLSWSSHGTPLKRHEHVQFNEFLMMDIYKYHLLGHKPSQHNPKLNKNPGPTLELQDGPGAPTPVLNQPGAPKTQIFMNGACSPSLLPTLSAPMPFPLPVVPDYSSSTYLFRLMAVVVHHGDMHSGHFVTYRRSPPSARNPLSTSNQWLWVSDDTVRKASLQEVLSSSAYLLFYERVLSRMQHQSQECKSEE
Assay: In Vitro USP30 Biochemical Assay

IC50: > 10 µM
Structure (SMILES): CC(C)(C)NS(=O)(=O)c1ccc(NC(=O)[C@H]2CCCN2C(=O)c2ccc(F)cc2)cc1 [US20250162989, Compound I-51]
